{
  "source": "patent US11136583B2",
  "about": "“Methods and materials for treating cancer” (Mayo Foundation for Medical Education and Research, priority 2017, dated 2021)",
  "key": {"UFL1": {"tested_on": "UFL1", "assay": "Ufmylation level in U2OS cells by western blot with UFM1 antibody", "type": "cell-based", "method": "FIG. 10. U2OS cells were treated with AZD6244 or GDC0623. 48 hours later, cell were harvested, lysed, and analyzed by western blot with the indicated antibodies.\n(§1) U2OS cells were plated in 6 well plates, and MEK1 inhibitors (AZD6244 or GDC0623) were added to wells with 10 μM final concentration and incubated for 48 hours. AZD6244 was purchased from Selleckchem. In some cases, cells were also irradiated with IR (10 Gy IR for 30 minutes).\n(§2) Cells were washed once with PBS and lysed with SDS lysis buffer. The samples were separated by SDS-PAGE following three washes with NETN buffer. Western blots were carried out following standard procedures.\nTo identify an inhibitor of UFL1 activity that induced a significant decrease of ufmylation, cells were treated with inhibitors and were analyzed by western blot using UFM1 antibody to detect the ufmylation level in the cells."}, "[1]": {"tested_on": "Protein kinase ataxia-telangiectasia mutated (ATM) signaling", "assay": "ATM signaling in irradiated U2OS cells by western blot", "type": "cell-based", "details": "U2OS cells pretreated 6 hours, then 10 Gy IR, harvested 30 minutes after IR (FIG. 11)", "method": "FIG. 11. U2OS cells were pretreated with AZD6244. 6 hours later, cells were treated with 10 Gy IR. 30 minutes after ionizing radiation, cells were harvested, lysed, and analyzed by western blot with the indicated antibodies.\nas §1, §2"}},
  "data": [
    {"smiles": "Cn1cnc2c(F)c(Nc3ccc(Br)cc3Cl)c(C(=O)NOCCO)cc21", "note": "[AZD6244, selumetinib]", "values": [
      {"measurement": "UFL1 inhibition (conclusion from ufmylation and ATM signaling western blots)", "setting": "UFL1", "value": "inhibits UFL1"},
      {"measurement": "ufmylation level in the cells", "setting": "UFL1; 10 μM, 48 hours, western blot with UFM1 antibody (FIG. 10)", "value": "greatly suppressed"},
      {"measurement": "ATM signaling", "setting": "[1]", "value": "greatly suppressed"}
    ]}
  ]
}
